Laboratory results: patent US6838436B1, “Inhibitors of proteasomal activity for stimulating bone growth” (Osteoscreen Inc., priority 1998, dated 2005)
Marks after values point to notes of the source that are not given here. Where a SMILES comes first, the peptide text is derived from it. The star is where a group is joined. Cbz = O=C(OCc1ccccc1)*; OtBu = CC(C)(C)O*

Tests used:
hair follicles = assay: Stimulation of hair growth after wax hair stripping, subcutaneous injection (Example 9); assay type: in vivo, Male Swiss ICR mice
Procedure: Male Swiss ICR mice were first treated to remove hair from the scalp and dorsal regions as follows. Paraffin wax was liquefied by heating to 55° C. and the liquefied wax then applied by brush to the scalp and/or back (under anesthesia). The wax was allowed to solidify and then removed. The day following hair stripping, PSI (1 mg/kg/day) was injected subcutaneously three times a day for five days into the scalp and dorsal region. […] The mice were sacrificed on day 21 and histology was performed on the dermis of the scalp and of the dorsal region. […] Upon closer examination, it was observed that mice that had received only vehicle had quiescent hair follicles.

calvaria = assay: Calvarial assay of epoxomicin (Example 7), new bone area; assay type: cell-based, mouse
Procedure: An assay for bone resorption or bone formation is similar to that described by Gowen M. & Mundy G., J Immunol (1986) 136:2478-82. Briefly, four days after birth, the front and parietal bones of ICR Swiss white mouse pups are removed by microdissection and split along the sagittal suture. In an assay for resorption, the bones are incubated in BGJb medium (Irvine Scientific, Santa Ana, Calif.) plus 0.02% (or lower concentration) β-methylcyclodextrin, wherein the medium also contains test or control substances. The medium used when the assay is conducted to assess bone formation is Fitton and Jackson Modified BGJ Medium (Sigma) supplemented with 6 μg/ml insulin, 6 μg/ml transferrin, 6 ng/ml selenous acid, calcium and phosphate concentrations of 1.25 and 3.0 mM, respectively, and ascorbic acid to a concentration of 100 μg/ml is added every two days. The incubation is conducted at 37° C. in a humidified atmosphere of 5% CO2 and 95% air for 96 hours.
New bone formation was determined (using a 10× objective) by measuring the new bone area formed in one field in 3 representative sections of each bone (4 bones per group). Each measurement was carried out ½ field distance from the end of the suture. Both total bone and old bone area were measured. Data were expressed as new bone area in μm^2.

papain = target: T1, papain (Carica papaya, UniProt P00784); details: cited from earlier work
T1 sequence (P00784 134-345): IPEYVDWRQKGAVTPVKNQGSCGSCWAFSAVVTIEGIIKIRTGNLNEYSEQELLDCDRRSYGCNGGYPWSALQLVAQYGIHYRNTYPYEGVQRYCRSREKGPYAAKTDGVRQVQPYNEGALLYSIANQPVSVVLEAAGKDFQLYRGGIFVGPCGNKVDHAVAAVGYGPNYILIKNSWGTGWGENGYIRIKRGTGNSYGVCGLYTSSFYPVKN

| Compound | number of hair follicles versus control mice (hair follicles; 1 mg/kg/day subcutaneously three times a day for five days, day 7 dermal punch biopsy) | hair growth rate (hair follicles; 1 mg/kg/day subcutaneously, by day 18) | mature hair follicles in the lower region of the dermis (hair follicles; 1 mg/kg/day subcutaneously, day 21 histology) | bone formed compared with control (calvaria; concentrations of 5-10 nM) | New Bone Area (calvaria; dose 0.000625 μM) [mm^2 × 10^−3] | New Bone Area (calvaria; dose 0.00125 μM) [mm^2 × 10^−3] | New Bone Area (calvaria; dose 0.0025 μM) [mm^2 × 10^−3] | New Bone Area (calvaria; dose 0.005 μM) | New Bone Area (calvaria; dose 0.01 μM) | concentration up to which no inhibition appears (papain) [µM] |
| --- | --- | --- | --- | --- | --- | --- | --- | --- | --- | --- |
| CC[C@H](C)[C@H](NC(=O)OCc1ccccc1)C(=O)N[C@@H](CCC(=O)OC(C)(C)C)C(=O)N[C@@H](C)C(=O)N[C@H](C=O)CC(C)C [PSI, N-carbobenzoyl-Ile-Glu-(OtBu)-Ala-Leu-CHO] (Cbz-IE(OtBu)AL-aldehyde) | large increase in the number of hair follicles | hair growth rate greater than that of the mice in the control group | mature hair follicles in numbers much greater than in controls |  |  |  |  |  |  |  |
| CC[C@H](C)[C@H](NC(=O)[C@H]([C@@H](C)CC)N(C)C(C)=O)C(=O)N[C@H](C(=O)N[C@@H](CC(C)C)C(=O)[C@@]1(C)CO1)[C@@H](C)O [Epoxomicin] |  |  |  | significantly more bone was formed than in the control | 2.78 | 2.80 | 4.04 | 6.54# mm^2 × 10^−3 | 5.74# mm^2 × 10^−3 | > 50 |
